Measured values published in patent publication US8697653B2, “Microparticle formulation for pulmonary drug delivery of anti infective molecule for treatment of infectious diseases” (priority 2010, dated 2014).

Legend:
[1] = Estimation of solubility in simulated lung fluid (SLF, pH 7.4) by HPLC; assay type: physicochemical; settings: fassgf or other biorelevant, thermodynamic from solid
Experimental: SLF was prepared by method based on Respiratory Physiology & Neurobiology, 2008, 162, 73-79. 9 g of sodium chloride, 0.220 g of calcium chloride and 6.5 g of lactose were dissolved in 1000 mL of water. The pH of the resultant solution was adjusted to 7.4. Solubility of compound of formula I in SLF was measured at two temperatures, 45° C. and 60° C. For this, 1 mg of compound of formula I was added to 3 mL of SLF (in duplicates) and after vortexing for few seconds was incubated in water bath set at the required temperatures. Solubility was measured at one hour intervals for three hours. The solution was filtered through 0.22 μm filter and the filtrate was injected on HPLC. Solubility was calculated with respect to appropriate calibration curve.

[2] = test system: MRC5, L929 and A549 cell lines; test: In vitro cytocompatibility assay, all cell lines evaluated; assay type: cell-based; settings: all the different cell lines evaluated
Experimental: The assay was carried out based on the reference Journal of Biomedical Materials Research, 2009, […], 281-292. This assay was performed to evaluate the cytocompatibility of the formulation of Example 9 Method A with the relevant cell lines and standard cells which are specified by the regulatory agencies. Cell density: 10,000/well for MRC 5 and […], and 3000/well for A549 Time points: 24 hours and 48 hours. The toxicological evaluation was done using The CellTiter 96 Aqueous One Solution Assay by Promega (Cat. no: G3582). The assay is a standard colorimetric method for determining the number of viable cells in proliferation or cytotoxicity assays. The MTS used in the assay is bioreduced by cells into a colored formazan product that is soluble in tissue culture medium. The quantity of formazan product as measured by the amount of 490 nm absorbance is directly proportional to the number of living cells in culture. […] The ELISA 96-well plate was then subjected to absorbance recordings at 490 nm (450-540 nm) with a 96-well plate reader. The average 490 nm absorbance from the “no-cell” control was subtracted from all other absorbance values and the corrected absorbance was utilized for further calculations. (Background absorbance from “no-cell” control is typically 0.2 to 0.3 absorbance units after 4 hours of incubation).

[3] = Physical properties: solubility in solvents and water; assay type: physicochemical; settings: chloroform, ethyl acetate, methanol, water
Experimental: • Column: Eurospher RP-18, (3μ, 4.6×125 mm) • Solvent system: Gradient (0% acetonitrile to 100% in 15 minutes against water, followed by 100% acetonitrile for 5 minutes) • Flow rate: 1 mL/minute • Detection (UV): 245 nm • Retention time: compound of formula I (12 to 13 minutes) Physical & Spectral properties of the compound of formula I: • Appearance: White powder • Melting point: 240° C.

[4] = Dose scheduling, nose-only exposure lung deposition (Example 23); assay type: in vivo, Guinea pigs; settings: 3 mg/kg, regimen not stated
Experimental: To evaluate dose scheduling of the formulation of Example 9 Method A The assay was done as reported in The AAPS Journal, 2005, 7 (1), E20-E41.
(§1) A nose-only exposure in vivo lung deposition study was carried out as per the reference mentioned. Guinea pigs were divided in three groups. Group 1 received unformulated compound of formula I (3 mg/kg); group 2 received formulation of Example 9 Method A (3 mg/kg) once a day for one day and group 3 received formulation of Example 9 Method A (3 mg/kg) twice a day for one day. The unformulated compound of formula I and formulation of Example 9 Method A were aerosolized and the nose-only exposure was carried out using jet nebulizer. The animals were sacrificed and the lungs were collected and analyzed to quantitate the amount of compound of formula I (ng/g) deposited in the lung by LC-MS. LC-MS conditions are as provided in Tables 15, 16 and 17 of Example 21.

[5] = Pilot in vivo lung deposition study (Example 20); parameters: species or system Guinea pigs; settings: guinea pig, lungs, 10 mg/kg aerosolized, passive breathing, read-out: compound of formula I deposited
Experimental: (§2) The assay was done as reported in The AAPS Journal, 2005, 7 (1), E20-E41.
A pilot in vivo lung deposition study was carried out as per the reference mentioned. Guinea pigs were divided in three groups. Group 1 received formulation of Example 9 Method A, group 2 received unformulated compound of formula I and group 3 was untreated (naïve group). 10 mg/kg of the formulation was aerosolized and the animals were allowed to breathe passively. Following administration of the formulation of Example 9 Method A the animals were sacrificed at 30 minutes time point. The lungs were collected and analyzed by HPLC.

rat alveolar macrophages = test: In vitro macrophage uptake assay; assay type: cell-based
Experimental: The assay was carried out based on the reference Respiratory Research, 2009, 10, 44.
Bronchoalveolar lavage washings from the rats were taken after appropriate ethical permission. Sterile warmed saline was introduced into the lung and then removed by suction. Bronchoalveolar lavage fluid was transported on icepacks (usually 100 to 200 mL of bronchoalveolar lavage fluid per donor is desired). The fluid was subjected to centrifugation at 250 g for 10 minutes and the cells were collected. Pooled the cell pellets by resuspending the cells in a total of 10 mL of HBSS. 100 μL aliquot was removed and stained with Wright-Giemsa stain to do a differential cell count. The cell count was adjusted and plated the cells in macrophage culture medium (HAM F12 medium, Amimed, Switzerland). 0.5 mL of the cell suspension was added to each of the 6 well tissue culture plates with 0.5 mL of the macrophage culture medium. The cells were incubated for 24 hours at 37° C. and 5% CO2. Cell adherence and cell growth was evaluated and treated with the formulation of Example 9 Method A tagged with sulforhodamine dye. Post treatment the cells were evaluated for fluorescence. This fluorescence results for selective uptake of the formulation by the alveolar macrophages.

[6] = Cumulative accumulation after once a day dosing for 5 days (Example 22); parameters: species or system Guinea pigs; settings: guinea pig, in vivo; lung, 3 mg/kg, 1 hour nebulization everyday for five consecutive days, sacrificed on 6th day; read-out: Compound of formula I deposited
Experimental: Evaluation of cumulative accumulation of formulation of Example 9 Method A after once a day dosing for 5 days for nebulization exposure period of 1 hour/day The assay was done as reported in The AAPS Journal, 2005, 7 (1), E20-E41.
as §1, with “in two” for “in three”, “(3 mg/kg) and” for “(3 mg/kg);”, “(3 mg/kg).” for “(3 mg/kg) once a day for one day and group 3 received formulation of Example 9 Method A (3 mg/kg) twice a day for one day.”, “jet nebulizer wherein the nebulization period was one hour everyday for five consecutive days and the” for “jet nebulizer. The”, “sacrificed on 6th day. The” for “sacrificed and the”

[7] = Pulmonary bioavailability, nose-only exposure lung deposition (Example 21); assay type: in vivo, Guinea pigs; settings: 3 mg/kg
Experimental: as §2
A nose-only exposure in vivo lung deposition study was carried out as per the reference mentioned. Guinea pigs were divided in two groups. Group 1 received unformulated compound of formula I (3 mg/kg) and group 2 received formulation of Example 9 Method A (3 mg/kg). The unformulated compound of formula I and formulation of Example 9 Method A were aerosolized and the nose-only exposure was carried out using jet nebulizer wherein the nebulization period was one hour. Following aerosol administration, the animals were sacrificed at 1 hour, 2 hours, 6 hours, 12 hours and 24 hours post aerosol exposure and the lungs were collected and analyzed to quantitate the amount of compound of formula I (ng/g) deposited in the lung by LC-MS.

[8] = Antimicrob. Agents Chemother., 1999, 37, 281-286; cited from earlier work

Compound `C=C(NC(=O)C(=C)NC(=O)c1csc(C2=NC3c4csc(n4)C4NC(=O)c5csc(n5)C(C(C)(O)C(C)O)NC(=O)C5CSC(=N5)/C(=C\C)NC(=O)C(C(C)O)NC(=O)c5csc(n5)C3(CC2)NC(=O)C(C)NC(=O)C(=C)NC(=O)C(C)NC(=O)C(C(C)C)NC2C=Cc3c(C(C)O)cc(nc3C2O)C(=O)OC4C)n1)C(N)=O` (stereo not shown) [Compound of formula I] has a solubility at 1 h ([1]; SLF pH 7.4, 45° C.) of 1.3 µg/mL, a solubility at 2 h ([1]; SLF pH 7.4, 45° C.) of 0.9 µg/mL and a solubility at 3 h ([1]; SLF pH 7.4, 45° C.) of 1.2 µg/mL. The solubility at 1 h ([1]; SLF pH 7.4, 60° C.) was 0.6 µg/mL, the solubility at 2 h ([1]; SLF pH 7.4, 60° C.) was 0.7 µg/mL and the solubility at 3 h ([1]; SLF pH 7.4, 60° C.) was 1.3 µg/mL. For the same compound, the “Cytotoxicity (in words)” value [2] was “exhibited cytotoxicity”, the “Solubility (in words)” value [3] was “Soluble in chloroform, ethyl acetate, methanol and insoluble in water” and the “Compound of formula I deposited” value [4] was 0 ng/g. The concentration at 30 min [5] was 0 ng/g, the “Uptake by alveolar macrophages (in words)” value (rat alveolar macrophages) was “does not show active uptake” and the “Compound concentration in alveolar macrophages” value (“Compound concentration” below) (rat alveolar macrophages; 30 minutes) was 2010 ng/mL. The “Compound concentration” value (rat alveolar macrophages; 60 minutes) was 2010 ng/mL, the “Compound concentration” value (rat alveolar macrophages; 120 minutes) was 1990 ng/mL and the concentration at 6 day [6] was 1 ng/g. For the same compound, the “Ability to reach the lungs on nebulization (in words)” value ([7]; nose-only nebulization) was “unable to reach the lungs”, the concentration at 1 h ([7]; guinea pig, in vivo, lung, nose-only, 1 hour nebulization, 1 hour post exposure, read-out: Compound of formula I deposited) was 1 ng/g and the concentration at 2 h ([7]; guinea pig, in vivo, lung, nose-only, 1 hour nebulization, 2 hours post exposure, read-out: Compound of formula I deposited) was 1 ng/g. For the same compound, the concentration at 6 h ([7]; guinea pig, in vivo, lung, nose-only, 1 hour nebulization, 6 hours post exposure, read-out: Compound of formula I deposited) was 1 ng/g, the concentration at 12 h ([7]; guinea pig, in vivo, lung, nose-only, 1 hour nebulization, 12 hours post exposure, read-out: Compound of formula I deposited) was 1 ng/g and the concentration at 24 h ([7]; guinea pig, in vivo, lung, nose-only, 1 hour nebulization, 24 hours post exposure, read-out: Compound of formula I deposited) was 1 ng/g.
For `CN[C@H](CC(C)C)C(=O)N[C@H]1C(=O)N[C@@H](CC(N)=O)C(=O)N[C@H]2C(=O)N[C@H]3C(=O)N[C@H](C(=O)N[C@H](C(=O)O)c4cc(O)cc(O)c4-c4cc3ccc4O)[C@H](O)c3ccc(c(Cl)c3)Oc3cc2cc(c3O[C@@H]2O[C@H](CO)[C@@H](O)[C@H](O)[C@H]2O[C@H]2C[C@](C)(N)[C@H](O)[C@H](C)O2)Oc2ccc(cc2Cl)[C@H]1O` [Vancomycin], the “Lung concentrations as % of the plasma concentrations” value [8] is given as 20%.
